Laboratory results published in the NIST ThermoML archive (doi:10.1021/je201009c).
Numbers after ± are expanded uncertainties.

Assay: xn = mol fraction of the nth substance listed
Details: for surface tension liquid-gas: Capillary rise; for viscosity / mass density: 101 kPa, Liquid; for viscosity: Falling or rolling sphere viscometry; for mass density: Vibrating tube method

CC(=O)OCc1ccccc1 [benzyl ethanoate] + OCc1ccccc1
Details | mass density [kg/m3] | surface tension liquid-gas [mN/m] | viscosity [mPa·s]
293.15 K, x1 = 0.05 | 1046.29 ± 0.19 | – | 5.782 ± 0.05
293.15 K, x1 = 0.1001 | 1047.03 ± 0.19 | 39.2 ± 0.4 | 5.319 ± 0.046
293.15 K, x1 = 0.1502 | 1047.73 ± 0.2 | – | 4.905 ± 0.043
293.15 K, x1 = 0.2001 | 1048.38 ± 0.2 | 39.2 ± 0.4 | 4.536 ± 0.04
293.15 K, x1 = 0.25 | 1048.99 ± 0.2 | – | 4.214 ± 0.038
293.15 K, x1 = 0.3 | 1049.58 ± 0.21 | 39.1 ± 0.4 | 3.927 ± 0.036
293.15 K, x1 = 0.3498 | 1050.15 ± 0.21 | – | 3.678 ± 0.034
293.15 K, x1 = 0.4001 | 1050.71 ± 0.22 | 39 ± 0.4 | 3.454 ± 0.033
293.15 K, x1 = 0.45 | 1051.24 ± 0.22 | – | 3.252 ± 0.031
293.15 K, x1 = 0.5 | 1051.77 ± 0.23 | 38.7 ± 0.4 | 3.087 ± 0.03
293.15 K, x1 = 0.5501 | 1052.26 ± 0.23 | – | 2.93 ± 0.029
293.15 K, x1 = 0.6001 | 1052.74 ± 0.24 | 38.4 ± 0.4 | 2.795 ± 0.028
293.15 K, x1 = 0.65 | 1053.19 ± 0.24 | – | 2.684 ± 0.028
293.15 K, x1 = 0.6999 | 1053.64 ± 0.25 | 38.1 ± 0.4 | 2.589 ± 0.027
293.15 K, x1 = 0.7502 | 1054.03 ± 0.26 | – | 2.505 ± 0.027
293.15 K, x1 = 0.8 | 1054.42 ± 0.26 | 37.8 ± 0.4 | 2.428 ± 0.026
293.15 K, x1 = 0.85 | 1054.77 ± 0.27 | – | 2.376 ± 0.026
293.15 K, x1 = 0.9 | 1055.11 ± 0.28 | 37.5 ± 0.4 | 2.343 ± 0.026
293.15 K, x1 = 0.95 | 1055.46 ± 0.29 | – | 2.326 ± 0.026
293.15 K, x1 = 1 | 1055.81 ± 0.3 | 37.3 ± 0.5 | 2.324 ± 0.026
303.15 K, x1 = 0.05 | 1038.18 ± 0.19 | – | 4.21 ± 0.038
303.15 K, x1 = 0.1001 | 1038.83 ± 0.19 | 38 ± 0.4 | 3.894 ± 0.036
303.15 K, x1 = 0.1502 | 1039.44 ± 0.19 | – | 3.623 ± 0.034
303.15 K, x1 = 0.2001 | 1040.01 ± 0.2 | 37.9 ± 0.4 | 3.378 ± 0.032
303.15 K, x1 = 0.25 | 1040.58 ± 0.2 | – | 3.165 ± 0.03
303.15 K, x1 = 0.3 | 1041.11 ± 0.2 | 37.8 ± 0.4 | 2.972 ± 0.029
303.15 K, x1 = 0.3498 | 1041.61 ± 0.21 | – | 2.806 ± 0.028
303.15 K, x1 = 0.4001 | 1042.1 ± 0.21 | 37.5 ± 0.4 | 2.662 ± 0.027
303.15 K, x1 = 0.45 | 1042.57 ± 0.22 | – | 2.535 ± 0.026
303.15 K, x1 = 0.5 | 1043.01 ± 0.22 | 37.1 ± 0.4 | 2.432 ± 0.026
303.15 K, x1 = 0.5501 | 1043.43 ± 0.23 | – | 2.332 ± 0.025
303.15 K, x1 = 0.6001 | 1043.84 ± 0.23 | 36.7 ± 0.4 | 2.234 ± 0.025
303.15 K, x1 = 0.65 | 1044.24 ± 0.24 | – | 2.171 ± 0.024
303.15 K, x1 = 0.6999 | 1044.62 ± 0.25 | 36.3 ± 0.4 | 2.091 ± 0.024
303.15 K, x1 = 0.7502 | 1044.99 ± 0.25 | – | 2.035 ± 0.024
303.15 K, x1 = 0.8 | 1045.35 ± 0.26 | 36 ± 0.4 | 1.985 ± 0.023
303.15 K, x1 = 0.85 | 1045.7 ± 0.27 | – | 1.941 ± 0.023
303.15 K, x1 = 0.9 | 1046.05 ± 0.27 | 35.8 ± 0.4 | 1.902 ± 0.023
303.15 K, x1 = 0.95 | 1046.4 ± 0.28 | – | 1.867 ± 0.023
303.15 K, x1 = 1 | 1046.74 ± 0.29 | 35.6 ± 0.4 | 1.836 ± 0.023
313.15 K, x1 = 0.05 | 1030.21 ± 0.19 | – | 3.18 ± 0.03
313.15 K, x1 = 0.1001 | 1030.76 ± 0.19 | 37 ± 0.4 | 3.006 ± 0.029
313.15 K, x1 = 0.1502 | 1031.27 ± 0.19 | – | 2.848 ± 0.028
313.15 K, x1 = 0.2001 | 1031.72 ± 0.19 | 36.8 ± 0.4 | 2.687 ± 0.027
313.15 K, x1 = 0.25 | 1032.23 ± 0.2 | – | 2.536 ± 0.026
313.15 K, x1 = 0.3 | 1032.67 ± 0.2 | 36.4 ± 0.4 | 2.396 ± 0.025
313.15 K, x1 = 0.3498 | 1033.08 ± 0.21 | – | 2.265 ± 0.024
313.15 K, x1 = 0.4001 | 1033.48 ± 0.21 | 36 ± 0.4 | 2.154 ± 0.024
313.15 K, x1 = 0.45 | 1033.86 ± 0.21 | – | 2.056 ± 0.023
313.15 K, x1 = 0.5 | 1034.24 ± 0.22 | 35.6 ± 0.4 | 1.966 ± 0.023
313.15 K, x1 = 0.5501 | 1034.6 ± 0.22 | – | 1.903 ± 0.023
313.15 K, x1 = 0.6001 | 1034.94 ± 0.23 | 35.2 ± 0.4 | 1.832 ± 0.022
313.15 K, x1 = 0.65 | 1035.27 ± 0.24 | – | 1.774 ± 0.022
313.15 K, x1 = 0.6999 | 1035.57 ± 0.24 | 34.8 ± 0.4 | 1.728 ± 0.022
313.15 K, x1 = 0.7502 | 1035.87 ± 0.25 | – | 1.684 ± 0.022
313.15 K, x1 = 0.8 | 1036.18 ± 0.26 | 34.6 ± 0.4 | 1.646 ± 0.021
313.15 K, x1 = 0.85 | 1036.48 ± 0.26 | – | 1.613 ± 0.021
313.15 K, x1 = 0.9 | 1036.79 ± 0.27 | 34.4 ± 0.4 | 1.572 ± 0.021
313.15 K, x1 = 0.95 | 1037.11 ± 0.28 | – | 1.524 ± 0.021
313.15 K, x1 = 1 | 1037.42 ± 0.29 | 34.3 ± 0.4 | 1.474 ± 0.021
323.15 K, x1 = 0.05 | 1021.94 ± 0.18 | – | 2.45 ± 0.026
323.15 K, x1 = 0.1001 | 1022.36 ± 0.19 | 36 ± 0.4 | 2.349 ± 0.025
323.15 K, x1 = 0.1502 | 1022.75 ± 0.19 | – | 2.232 ± 0.024
323.15 K, x1 = 0.2001 | 1023.12 ± 0.19 | 35.7 ± 0.4 | 2.125 ± 0.024
323.15 K, x1 = 0.25 | 1023.48 ± 0.19 | – | 2.021 ± 0.023
323.15 K, x1 = 0.3 | 1023.81 ± 0.2 | 35.2 ± 0.4 | 1.925 ± 0.022
323.15 K, x1 = 0.3498 | 1024.13 ± 0.2 | – | 1.838 ± 0.022
323.15 K, x1 = 0.4001 | 1024.44 ± 0.21 | 34.8 ± 0.4 | 1.756 ± 0.022
323.15 K, x1 = 0.45 | 1024.73 ± 0.21 | – | 1.683 ± 0.021
323.15 K, x1 = 0.5 | 1025.02 ± 0.22 | 34.3 ± 0.4 | 1.62 ± 0.021
323.15 K, x1 = 0.5501 | 1025.28 ± 0.22 | – | 1.561 ± 0.021
323.15 K, x1 = 0.6001 | 1025.53 ± 0.23 | 33.9 ± 0.4 | 1.521 ± 0.021
323.15 K, x1 = 0.65 | 1025.79 ± 0.23 | – | 1.482 ± 0.02
323.15 K, x1 = 0.6999 | 1026.04 ± 0.24 | 33.5 ± 0.4 | 1.444 ± 0.02
323.15 K, x1 = 0.7502 | 1026.28 ± 0.24 | – | 1.41 ± 0.02
323.15 K, x1 = 0.8 | 1026.52 ± 0.25 | 33.4 ± 0.4 | 1.387 ± 0.02
323.15 K, x1 = 0.85 | 1026.77 ± 0.26 | – | 1.361 ± 0.02
323.15 K, x1 = 0.9 | 1027.01 ± 0.26 | 33.3 ± 0.4 | 1.339 ± 0.02
323.15 K, x1 = 0.95 | 1027.26 ± 0.27 | – | 1.308 ± 0.02
323.15 K, x1 = 1 | 1027.51 ± 0.28 | 33.2 ± 0.4 | 1.256 ± 0.02
